# Target: Bruton's tyrosine kinase (Btk) (Homo sapiens, UniProt Q06187)
# Assay: IC50
# Assay type: biochemical
# Sequence of Bruton's tyrosine kinase (Btk) (Q06187 2-659): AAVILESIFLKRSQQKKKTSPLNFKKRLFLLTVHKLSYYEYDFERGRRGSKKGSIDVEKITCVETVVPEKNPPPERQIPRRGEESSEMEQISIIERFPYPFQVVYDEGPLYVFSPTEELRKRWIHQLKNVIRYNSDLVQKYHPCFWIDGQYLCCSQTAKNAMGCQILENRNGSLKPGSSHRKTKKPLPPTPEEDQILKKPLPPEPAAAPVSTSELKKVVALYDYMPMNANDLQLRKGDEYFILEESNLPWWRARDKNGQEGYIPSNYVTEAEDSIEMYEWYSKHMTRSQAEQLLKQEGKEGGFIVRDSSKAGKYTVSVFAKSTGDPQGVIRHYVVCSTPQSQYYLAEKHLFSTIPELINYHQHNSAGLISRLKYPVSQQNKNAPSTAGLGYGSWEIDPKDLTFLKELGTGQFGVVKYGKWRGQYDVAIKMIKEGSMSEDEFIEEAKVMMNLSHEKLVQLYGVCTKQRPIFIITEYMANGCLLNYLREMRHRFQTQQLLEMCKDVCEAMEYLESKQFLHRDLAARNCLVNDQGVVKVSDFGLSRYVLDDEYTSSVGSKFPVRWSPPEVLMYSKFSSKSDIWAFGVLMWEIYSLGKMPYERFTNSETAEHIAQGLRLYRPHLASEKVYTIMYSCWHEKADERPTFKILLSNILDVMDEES
substance,measurement,value
AVL-292-SiR-COOH,IC50,284 nM
